Measurements as given in patent US20250041438A1, “ANTIBODY-DRUG CONJUGATE” (NOVELTY NOBILITY INC., priority 2022, published 2025).

How the values were obtained:
Kasumi-1 cells = experiment: In vivo efficacy against AML, Kasumi-1 xenograft model; parameters: species or system mice; settings: day 17; imatinib 100 mg/kg p.o.
Experimental: The experiment was performed in the same manner as in Example 5, except that Kasumi-1 cells (3×10^6/100 […]/head/serum free, RPMI1640 medium) in 50% Matrigel (Corning, 354248, NY, USA) were used. The mice were enrolled in this study on day 29 after transplantation, and the average tumor volume was about 170 mm^3 (day 0).

GIST-T1 cells = assay type: in vivo; settings: imatinib 100 mg/kg p.o. D0-D29
SCLC-H526 cells = experiment: In vivo efficacy against SCLC, SCLC-H526 xenograft model; parameters: species or system mice; settings: day 21; imatinib 100 mg/kg p.o.
Experimental: In order to evaluate the efficacy of ADC substances against SCLC, an experiment was performed. The SCLC-H526 (NCI-H526, stage E, carcinoma; variant small cell lung cancer, c-Kit overexpression) xenograft model was used.

HMC 1.2 cells = experiment: In vivo efficacy against mast cell tumor, HMC 1.2 xenograft model; parameters: species or system mice; settings: day 17; imatinib 100 mg/kg p.o.
GIST-430/654 cells = experiment: In vivo efficacy against imatinib-resistant GIST, GIST-430/654 cell xenograft model; parameters: species or system mice; settings: day 49; imatinib 100 mg/kg p.o.

## Cc1ccc(NC(=O)c2ccc(CN3CCN(C)CC3)cc2)cc1Nc1nccc(-c2cccnc2)n1 [imatinib, reference compound]
Kasumi-1 cells
  tumor growth inhibition compared to the control (vehicle), in words: little inhibition of tumor growth
GIST-T1 cells
  tumor weight after sacrifice, decrease compared to the control (vehicle): about 59%
SCLC-H526 cells
  tumor growth inhibition compared to the control (vehicle), in words: little inhibition of tumor growth
HMC 1.2 cells
  tumor growth inhibition, in words: little inhibition of tumor growth
GIST-430/654 cells
  tumor growth inhibition compared to the control (vehicle), in words: little inhibition of tumor growth
